Results taken from PMC7004140, “In vitro hepatotoxicity of Petasites hybridus extract (Ze 339) depends on the concentration, the cytochrome activity of the cell system, and the species used” (Phytotherapy Research, 2019).

Key:
[1] = tested on: S9 fractions from rat, dog and human; experiment: Metabolism by liver S9 fractions from different species; type: in vitro ADME, rat (Sprague Dawley), dog (beagle); conditions: 20 μM, 60 min incubation
Text: (§1) The metabolism of petasin, isopetasin, and neopetasin was investigated using three different S9 fractions originating from three different species (isolated from rat, dog, and human liver homogenates containing cytochrome P450 isoforms) and isolated cytochromes of two different species (human and rat; rat analogues of the respective human cytochromes were used). For the expression of the different cytochromes, a baculovirus expression system was used according to supplier's manual. The S9 fractions or respectively single P450 cytochromes were used to mimic the liver metabolism by in vitro incubation.
(§2) The assay was carried out in triplicate in 1.5 ml glass vials with a final concentration of 20 μM of petasin, isopetasin, and neopetasin. The incubation was performed in a 37°C warm water bath. S9 fractions were thawed slowly on ice. Four different approaches were pursued by testing: (a) petasin, neopetasin, and isopetasin before (0 min) and after 60 min incubations with S9 fraction; (b) petasin, neopetasin, and isopetasin without S9 fraction after 60 min incubation; (c) vehicle as negative controls; and (d) cofactors of S9 fraction after 60‐min incubation.
(§3) A mixture of NADPH regeneration systems A (20‐fold) and B (100‐fold), phosphate buffer, and H2O was added, preincubated at 37°C, and shaken gently for 5 min. Afterwards, the recommended amount between 10 and 40 pmol/ml of enzyme or enzyme mixture was added according to manufacturer's instruction and incubated for further 60 min at 37°C and gently shaken. Afterwards, the reactions were stopped by addition of acetonitrile (400 μl). For the control sample, acetonitrile was added at 0 min incubation. The samples were centrifuged for 3 min at 10,000 × g. The supernatant was transferred to high‐performance liquid chromatography vials and analyzed by ultra‐performance liquid chromatography mass spectrometry (UPLC/MS). The UPLC analysis was performed with an UPLC Acquity H Class from Waters (Waters Corporation, Switzerland) including a quaternary high‐pressure gradient pump, an automatic sample injector, and a column thermostat. […]

CYP3A4 (human) = biological target: T1, CYP3A4 (human) (Homo sapiens, UniProt P08684); experiment: Metabolism by isolated human CYP3A4; type: in vitro ADME; conditions: petasins 20 μM, 60 min
T1 construct: purchased BD Gentest (Switzerland); host or cells: baculovirus expression system
T1 sequence (P08684 whole entry): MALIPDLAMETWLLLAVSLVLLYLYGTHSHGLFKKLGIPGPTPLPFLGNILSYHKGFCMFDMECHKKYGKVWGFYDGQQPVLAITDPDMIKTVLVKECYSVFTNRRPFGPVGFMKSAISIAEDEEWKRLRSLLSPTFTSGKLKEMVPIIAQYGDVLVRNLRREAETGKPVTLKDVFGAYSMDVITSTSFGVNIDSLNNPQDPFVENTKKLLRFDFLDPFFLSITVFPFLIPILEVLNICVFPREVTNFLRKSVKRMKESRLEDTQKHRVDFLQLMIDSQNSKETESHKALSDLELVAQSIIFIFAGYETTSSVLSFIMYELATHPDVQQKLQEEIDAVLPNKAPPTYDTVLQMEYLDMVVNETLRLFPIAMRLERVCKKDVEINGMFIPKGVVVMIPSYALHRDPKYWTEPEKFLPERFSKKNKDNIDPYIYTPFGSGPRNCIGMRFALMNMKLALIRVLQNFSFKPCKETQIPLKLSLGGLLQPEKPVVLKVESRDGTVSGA
Text: as §1, §2, §3

CYP2C6 (rat) = biological target: T2, CYP2C6 (rat) (Rattus norvegicus, UniProt P05178); experiment: Metabolism by isolated rat CYP2C6; type: in vitro ADME; conditions: petasins 20 μM, 60 min
T2 construct: purchased BD Gentest (Switzerland); host or cells: baculovirus expression system
T2 sequence (P05178 1-490): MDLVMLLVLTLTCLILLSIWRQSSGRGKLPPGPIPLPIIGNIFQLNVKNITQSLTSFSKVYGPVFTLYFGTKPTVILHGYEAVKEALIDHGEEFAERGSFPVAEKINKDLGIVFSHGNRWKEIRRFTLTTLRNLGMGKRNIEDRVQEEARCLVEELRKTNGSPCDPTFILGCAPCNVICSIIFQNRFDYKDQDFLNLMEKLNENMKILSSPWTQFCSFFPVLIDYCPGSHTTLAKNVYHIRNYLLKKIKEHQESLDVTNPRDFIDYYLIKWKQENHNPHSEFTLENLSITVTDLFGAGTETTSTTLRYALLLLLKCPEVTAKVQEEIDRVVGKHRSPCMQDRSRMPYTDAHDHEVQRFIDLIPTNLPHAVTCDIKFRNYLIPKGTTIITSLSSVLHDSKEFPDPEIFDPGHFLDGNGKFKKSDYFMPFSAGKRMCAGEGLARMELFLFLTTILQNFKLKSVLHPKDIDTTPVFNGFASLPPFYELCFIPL
Text: as §1, §2, §3

CYP2C11 (rat) = biological target: T3, CYP2C11 (rat) (Rattus norvegicus, UniProt P08683); experiment: Metabolism by isolated rat CYP2C11; type: in vitro ADME; conditions: petasins 20 μM, 60 min
T3 construct: purchased BD Gentest (Switzerland); host or cells: baculovirus expression system
T3 sequence (P08683 1-500): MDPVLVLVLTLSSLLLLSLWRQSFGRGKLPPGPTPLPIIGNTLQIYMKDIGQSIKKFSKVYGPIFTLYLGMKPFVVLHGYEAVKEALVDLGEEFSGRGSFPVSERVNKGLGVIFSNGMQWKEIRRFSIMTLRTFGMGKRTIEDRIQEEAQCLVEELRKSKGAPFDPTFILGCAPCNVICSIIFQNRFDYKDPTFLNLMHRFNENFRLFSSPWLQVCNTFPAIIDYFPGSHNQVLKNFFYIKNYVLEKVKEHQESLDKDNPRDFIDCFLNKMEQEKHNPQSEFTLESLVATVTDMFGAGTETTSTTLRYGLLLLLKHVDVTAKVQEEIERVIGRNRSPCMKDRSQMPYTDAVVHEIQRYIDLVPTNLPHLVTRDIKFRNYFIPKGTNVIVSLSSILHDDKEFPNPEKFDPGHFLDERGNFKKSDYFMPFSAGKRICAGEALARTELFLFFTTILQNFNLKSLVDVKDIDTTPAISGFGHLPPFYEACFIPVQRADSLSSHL
Text: as §1, §2, §3

CYP2B6 (human) = biological target: T4, CYP2B6 (human) (Homo sapiens, UniProt P20813); experiment: Metabolism by isolated human CYP2B6; type: in vitro ADME; conditions: petasins 20 μM, 60 min
T4 construct: purchased BD Gentest (Switzerland); host or cells: baculovirus expression system
T4 sequence (P20813 1-491): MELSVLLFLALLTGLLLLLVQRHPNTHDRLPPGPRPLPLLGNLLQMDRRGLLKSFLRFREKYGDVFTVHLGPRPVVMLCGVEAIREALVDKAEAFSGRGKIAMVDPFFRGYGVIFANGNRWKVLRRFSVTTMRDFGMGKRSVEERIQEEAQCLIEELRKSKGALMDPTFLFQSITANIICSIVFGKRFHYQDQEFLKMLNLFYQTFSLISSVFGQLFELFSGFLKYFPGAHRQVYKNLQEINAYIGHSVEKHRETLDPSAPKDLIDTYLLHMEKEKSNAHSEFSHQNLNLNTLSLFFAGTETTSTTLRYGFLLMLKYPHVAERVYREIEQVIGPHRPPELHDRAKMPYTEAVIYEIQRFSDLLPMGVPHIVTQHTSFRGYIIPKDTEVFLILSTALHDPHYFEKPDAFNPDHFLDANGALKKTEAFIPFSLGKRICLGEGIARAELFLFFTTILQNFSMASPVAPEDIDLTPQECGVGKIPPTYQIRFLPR
Text: as §1, §2, §3

In the case of `C=C(C)[C@H]1C[C@@]2(C)C(=CC1=O)CC[C@@H](OC(=O)/C(C)=C\C)[C@@H]2C` [neopetasin], the “rank order of extent of metabolism by S9 fractions of different species” value [1] is reported as “rat>dog>human”, the “extent of metabolism by CYP3A4 (human)” value (CYP3A4 (human)) is reported as 86% and the “extent of metabolism by CYP2C6 (rat)” value (CYP2C6 (rat)) is reported as 72%. For the same compound, the “extent of metabolism by CYP2C11 (rat)” value (CYP2C11 (rat)) was 74% and the “extent of metabolism by CYP2B6 (human)” value (CYP2B6 (human)) was 20%.

For `C/C=C(/C)C(=O)O[C@@H]1CCC2=CC(=O)C(=C(C)C)C[C@]2(C)[C@H]1C` [isopetasin], the “rank order of extent of metabolism by S9 fractions of different species” value [1] was “rat>dog>human”, the “extent of metabolism by CYP3A4 (human)” value (CYP3A4 (human)) was 87% and the “extent of metabolism by CYP2C6 (rat)” value (CYP2C6 (rat)) was 75%. The “extent of metabolism by CYP2C11 (rat)” value (CYP2C11 (rat)) was 84% and the “extent of metabolism by CYP2B6 (human)” value (CYP2B6 (human)) was 13%.

`C=C(C)[C@@H]1C[C@@]2(C)C(=CC1=O)CC[C@@H](OC(=O)/C(C)=C\C)[C@@H]2C` [petasin] was tested, and the “rank order of extent of metabolism by S9 fractions of different species” value [1] was “rat>dog>human”, the “extent of metabolism by CYP3A4 (human)” value (CYP3A4 (human)) was 34% and the “extent of metabolism by CYP2C6 (rat)” value (CYP2C6 (rat)) was 94%. For the same compound, the “extent of metabolism by CYP2C11 (rat)” value (CYP2C11 (rat)) was 55% and the “extent of metabolism by CYP2B6 (human)” value (CYP2B6 (human)) was 50%.
